For 67 molecules, outcome, EC50 and IC50 results are on record in PubChem BioAssay AID179 (DTP/NCI, 2004).

The structures appear in SMILES notation. “And” between values parts separate entries of the source, which are not always exact repeats. Equal entries are not always repeated. The source made the active and inactive calls.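 Rule for the calls: active = compounds giving half or more protection of infected cells from virus-caused growth loss, again on retest; inactive = the rest.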

The subject of the assay is CEM cells HIV-1 protection, formazan growth assay. The assay can be described thus: NCI AIDS Antiviral Assay. Conditions: for IC50: measured here: growth of uninfected CEM cells. The method, boiled down: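 Five concentrations of each compound were applied to infected and uninfected human CEM cells. Protection from HIV-1 was judged from growth measured with a soluble formazan assay.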

Consider `Cc1cccc(C2NC(=S)N3C(c4cccc(C)c4)NC(=S)N23)c1` (configuration not stated), for which the outcome was inactive.
With `CCC[CH2][Sn]1([CH2]CCC)[O]C(c2ccccn2)S(=O)(=O)[O]1` (configuration not stated), the EC50 is over 30.9 µM and the half-maximal inhibitory concentration (IC50) stood at 0.178 µM.
For `COc1cc(C(=O)Oc2c(C#N)sc3c2c(=O)n(-c2ccccc2)c(=S)n3-c2ccccc2)cc(OC)c1OC`, the EC50 is over 200 µM and the IC50 is 0.617 µM.
Take `O=c1cc(O)c2ccccc2[nH]1`: the EC50 is over 200 µM and the IC50 was over 200 µM.
In the case of `C[N+]1(CC(O)(O)C(F)F)CCOCC1`, the EC50 was over 200 µM and the IC50 was over 200 µM.
For `CCN(CC)CCNC(=O)c1cn2c(ccc3sc4ccccc4c(=O)c32)n1`, the EC50 is over 20 µM and the IC50 was found to be 1.1 µM.
For the molecule `CC1C(=O)C2C1CS2(=O)=O` (configuration not stated), the EC50 was over 1260 µM and the half-maximal inhibitory concentration (IC50) was 1120 µM.
For the molecule `Cc1ccc2c(c1)CN(C(=O)CCC(=O)OCc1ccccc1)c1ccc(C)cc1CN2C(=O)CCC(=O)OCc1ccccc1`, the outcome was inactive.
For `COc1ccc(-c2csc3c2-n2cccc2C3=O)cc1`, the EC50 is over 2 µM and the IC50 amounted to 0.0363 µM.
For `CC(=O)[C@@H]1[C@@H](OC(=O)CCC(C)COC2OC(CO)C(O)C(O)C2O)C[C@H]2[C@@H]3CC=C4C[C@@H](OC5OC(CO)C(OC6OC(C)C(O)C(O)C6O)C(O)C5OC5OC(C)C(O)C(O)C5O)CC[C@]4(C)[C@H]3CC[C@]12C` (some centres not stated) the same measures were over 200 µM and over 200 µM.
For `CNC1c2ccccc2C(=O)c2cc3c(cc21)OCCOCCOCCOCCO3` (configuration not stated) the same measures were over 200 µM and 36.3 µM.
For `CC(=O)C(CN1CCCCC1)C(c1ccccc1)c1c(O)c2ccccc2oc1=O` (configuration not stated) the same measures were over 120 µM and 117 µM.
Regarding `CC(C)(C)C1CCC2c3c([nH]c4ccccc34)C3C(=O)N(c4ccc(Br)cc4)C(=O)C3C2C1` (configuration not stated), the EC50 was over 14.5 µM and the IC50 is over 14.5 µM.
On to `Nn1c(CCCCCCCCc2nnc(COc3ccc(Cl)cc3Cl)n2N)nnc1COc1ccc(Cl)cc1Cl`, for which the EC50 was over 200 µM and the IC50 was determined as 42.7 µM.
Molecule `O=C(O)C1CCCCC1c1c2ccc(=O)cc-2oc2cc(O)ccc12` (configuration not stated) yielded an EC50 of over 200 µM and an IC50 of 10.7 µM.
Take `CC(C)(C)C1CCC2c3c([nH]c4ccccc34)C3C(=O)N(c4ccccc4)C(=O)C3C2C1` (configuration not stated): the result was inactive.
As to `NC(=O)N/N=C(\CCC(=O)N(Cc1ccccc1)Cc1ccccc1)CC(=O)c1ccc(F)cc1`, the EC50 was over 200 µM and the IC50 is over 200 µM.
Consider `O=CC1(C(O)C2SCCCS2)SCCCS1` (configuration not stated), for which the EC50 was over 100 µM and the IC50 was determined as 5.5 µM.
The like results for `COc1cccc2sc(-n3c(C)nc4ccccc4c3=O)nc12` were, in that order, over 200 µM and over 200 µM.
Consider `COc1cnc([C@H]2CCC3[C@@H]4CC=C5C[C@@H](O)CC[C@]5(C)C4CC[C@@]32C)s1` (some centres not stated), for which the EC50 was over 4.9 µM and the IC50 is over 4.9 µM.
As for `C[CH2][Ge]([CH2]C)([CH2]C)[O]C(=O)C([O][Ge]([CH2]C)([CH2]C)[CH2]C)c1ccccc1` (configuration not stated), the EC50 is over 200 µM and the IC50 was determined as 20.9 µM.
For `Cc1cc2c(c(C=Nc3ccc(N(C)C)cc3)c1)OC1(C=C2)Oc2ccccc2C(=O)N1C` (configuration not stated) the same measures were over 41.7 µM and 13.2 µM.
For `CSC1=N/C(=C\c2ccccc2)C(=O)N1CN1CCOCC1` the same measures were over 200 µM and 87.1 µM.
The like results for `NC(N)=NS(=O)(=O)c1ccc(Nc2c3ccccc3nc3c(C(=O)N4CCN(CCO)CC4)cccc23)cc1` were, in that order, over 40.7 µM and over 40.7 µM.
With `CCN(CC)c1ccc(N=Nc2ccc(-c3nc4ccc[n+](C)c4o3)cc2)cc1`, the EC50 is over 2.04 µM and the IC50 is over 2.04 µM.
Take `CC(C)=CC(=O)c1c(C(=O)O)nc2ccccc2[n+]1[O-]`: the outcome was inactive.
In the case of `COC(=O)C1(C)C=C(Nc2ccccc2)C(=O)N1c1ccccc1` (configuration not stated), the EC50 is over 6.17 µM and the IC50 was over 6.17 µM.
Regarding `CC1CC(C)(C)OB(OC(C)CC(C)(C)OB2OC(C)CC(C)(C)O2)O1` (configuration not stated), the EC50 is over 200 µM and the concentration for half-maximal inhibition (IC50) was over 200 µM.
Consider `O=C(O)C(=O)O`, for which the EC50 is over 427 µM and the IC50 was over 427 µM.
With `N#C/C(c1nc2ccccc2[nH]1)=c1\s/c(=C/c2ccccc2)c(=O)n1-c1ccccc1`, the EC50 was over 200 µM and the IC50 is over 200 µM.
In the case of `Cc1ccc(OCC2OC(n3cnc4c(Cl)ncnc43)CC2Oc2ccc(C)cc2)cc1` (configuration not stated), the EC50 was over 200 µM; the IC50 is 6.92 µM and 12.3 µM.
Take `CC(=O)SCCCn1c(=O)n(CCCSC(C)=O)c(=O)n(CCCSC(C)=O)c1=O`: the EC50 is over 200 µM and the IC50 stood at 12.3 µM.
For `COC(=O)CCCCC=C(c1cc(Cl)c(OC)c(C(=O)OC)c1)c1cc(Cl)c(OC)c(C(=O)OC)c1` the same measures were 6.76 µM and 60.3 µM.
For `O=C(c1ccccc1)c1nc2c(Cl)ccc(Cl)c2cc1C(Br)Br` the same measures were over 2.19 µM and over 2.19 µM.
As to `Cc1c(Cc2ccccc2)n(C(C)OCCN2C(=O)c3ccccc3C2=O)c(=O)[nH]c1=O` (configuration not stated), the EC50 was over 200 µM and the half-inhibitory concentration (IC50) was over 200 µM.
Regarding `O=C1OC(c2ccccc2)c2cccnc21` (configuration not stated), the EC50 was over 1170 µM and the IC50 was over 1170 µM.
Turning to `C=C1CN2CCc3c([nH]c4ccccc34)C2CC1CC(=O)N(C)C` (configuration not stated), the EC50 was over 562 µM and the half-maximal inhibitory concentration (IC50) was found to be 468 µM.
With `CC1(C)CCC2(C(=O)OC3OC(CO)C(O)C(O)C3O)CCC3(CO)C(=CCC4C5(C)CC(O)C(O)C(C)(C(=O)OC6OC(CO)C(O)C(O)C6O)C5CCC43C)C2C1` (configuration not stated), the result was inactive.
Turning to `CN(C)Cc1cc(N=Nc2ccccc2)cc(CN(C)C)c1O`, the EC50 was over 200 µM and the IC50 worked out at 102 µM.
For `O=C(O)[C@@H]1CSC(C(O)C(O)C(O)C(O)CO)N1` (some centres not stated) the same measures were over 200 µM and over 200 µM.
Turning to `COC(=O)NN=C(c1ccc(Cl)cc1)c1ccc(Cl)cc1`, the EC50 was 35.5 µM and the half-maximal inhibitory concentration (IC50) was 174 µM.
For `CCCCCCCCCCCCCCCCC(C(=O)O)S(=O)(=O)O` (configuration not stated) the same measures were over 200 µM and 112 µM.
For `CC1=CC(O)(c2ccc(-c3ccccc3Cl)cc2)OC1=O` (configuration not stated), the outcome was inactive.
`CCC[CH2][Sn]1([CH2]CCC)[O]C(=O)c2cccnc2[O]1`: the EC50 is over 97.7 µM and the IC50 was determined as 0.0977 µM.
The like results for `O=C(CCCN1CCC(n2c(=O)[nH]c3ccccc32)CC1)c1ccc(F)cc1` were, in that order, over 200 µM and 89.1 µM.
The like results for `CC=CCOc1cc(NC(=S)OC(C)C)ccc1Cl` (mixture of isomers) were, in that order, 0.126 µM and 24 µM.
For `Cn1c2c(c3cc(Cl)cc(Cl)c31)-c1ncncc1CC2` the same measures were over 61.7 µM and over 61.7 µM.
As to `CC(=O)NNc1nc(C)c(C(/C=C/c2ccc3c(c2)OCO3)=N/Nc2ccccc2)s1`, the EC50 was over 56.2 µM and the IC50 was over 56.2 µM.
Consider `CC(C)(C)c1cc2c3c(c1)C(C(F)(F)F)(C(F)(F)F)O[Te]3(C)OC2(C(F)(F)F)C(F)(F)F`, for which the EC50 was over 31.6 µM and the IC50 was over 31.6 µM.
`Cc1cc2nc3n[nH]c(N)c3nc2cc1C`: the EC50 is over 200 µM and the IC50 was over 200 µM.
For the molecule `COc1ccc(N2C(=O)C3c4[nH]c5ccccc5c4C4c5ccccc5CC4C3C2=O)cc1` (configuration not stated), the EC50 was over 200 µM and the half-maximal inhibitory concentration (IC50) was over 200 µM.
`C/C=C(\C)C(=O)OC1CC(OC(C)=O)C2(C(=O)OC)COC3C2C1(C)C1C2(C(=O)OC)OCC1(C3O)C1(O)C3CC(C4(O)C=COC4O3)C1(C)O2` (configuration not stated): the EC50 is over 200 µM and the IC50 is 174 µM.
For `CN1CC(O)C(C(=O)NC23CC4CC(CC(C4)C2)C3)C1` (configuration not stated) the same measures were over 324 µM and 234 µM.
For `O=C(CN1CCOCC1)Nc1ccc2c(c1)C1Oc3ccccc3CC1CO2` (configuration not stated), the result was inactive.
On to `COc1ccc2nc3ccc(OC)cc3c(SCc3ccccc3)c2c1`, for which the EC50 is over 200 µM and the IC50 was over 100 µM.
The like results for `CCOC(=O)c1c(Br)c(-c2ccc(Br)cc2)c(Br)n1C` were, in that order, over 100 µM and 43.7 µM.
For `O=C(O)CN1CCNCCN(CC(=O)O)CCNCC1` the same measures were over 200 µM and 3.63 µM.
For `CC(=O)OC1CCC(OC(C)=O)[C@H]2[C@@H]1[C@@H]1S[C@H]2c2ccccc21` (some centres not stated) the same measures were over 200 µM and 42.7 µM.
As to `CC(C)CN1CC(=O)N2CCCC(C)N2C(=O)C1` (configuration not stated), the EC50 was over 200 µM and the IC50 is over 200 µM.
In the case of `Nc1nc2c(c(=O)[nH]1)Cc1nc(N)[nH]c(=O)c1C2`, the EC50 is over 24.5 µM and the IC50 was over 24.5 µM.
Consider `OCCN1CCN(CC/C=C2/c3ccccc3Sc3ccc(Cl)cc32)CC1`, for which the EC50 was over 200 µM and the 50% inhibitory concentration (IC50) turned out to be 7.41 µM.
For the molecule `COc1cc(-c2nn3c(=O)n(-c4ccc(Cl)cc4)c(=O)nc3s2)cc(OC)c1OC`, the EC50 was over 0.813 µM and the IC50 is over 0.813 µM.
In the case of `Cc1nc2c(ccc3c(C)c(C)c(C)nc32)c(C)c1C.Cc1nc2c(ccc3c(C)c(C)c(C)nc32)c(C)c1C.O=C1OC(C(O)C[O-])C(O)=C1O.[Cu+]`, the EC50 was over 12.6 µM and the IC50 was 0.692 µM.
The like results for `Cc1cnc2c(c1)C(=O)N(c1ccc([N+](=O)[O-])cc1)S2(=O)=O` were, in that order, over 200 µM and 17.4 µM.
The like results for `NC(N)=NS(=O)(=O)c1ccc(NC(=O)c2ccc(Cl)c3c(Nc4ccc(S(=O)(=O)N=C(N)N)cc4)c4ccccc4nc23)cc1` were, in that order, over 28.2 µM and over 28.2 µM.
Turning to `Cc1cn(C2CC(N=[N+]=[N-])C(COC(=O)C(O)[C@@]3(O)CC[C@H]4[C@@H]5CCC6=CC(=O)C=C[C@]6(C)[C@H]5[C@@H](O)C[C@@]43C)O2)c(=O)[nH]c1=O` (some centres not stated), the EC50 is 0.708 µM and the IC50 is over 200 µM.
For `S=C1CSc2c(ccc3ccccc23)N1` the same measures were over 200 µM and 141 µM.
